Source: US11459329B2, “Imidazopyridazine and imidazopyridine compounds and uses thereof” (Incyte Corporation, priority 2018, dated 2022)

biological target: ALK2 (aa 147-end) (Homo sapiens (Human), UniProt Q04771); assay: ALK2 HTRF Assay; format: biochemical; conditions: not given
Method: The enzymatic assays were conducted in white 384-well polystyrene plates in a final volume of 8 μL. The inhibitors were serially diluted in DMSO and added to the plate wells prior to addition of the other reaction components. The assays were carried out at 25° C. in the assay buffer (50 mM HEPES, pH 7.0, 10% Glycerol, 0.01% Brij50, 10 mM MgCl2, 1 mM EGTA, 5 mM DTT, and 0.01% BSA), containing 50 nM LANCE Ultra ULight™-DNA Topoisomerase 2-alpha peptide (Perkin Elmer TRF0130), and 3 μM ATP. The final concentration of DMSO in the assay was 1% and the enzyme concentration was 0.5 nM for ALK2. […] […] IC50 determination was performed by fitting percent control activity versus the log of the inhibitor concentration using the IDBS XLFit and GraphPad Prism 5.0 software.

Sequence of ALK2 (aa 147-end) (Q04771 147-509): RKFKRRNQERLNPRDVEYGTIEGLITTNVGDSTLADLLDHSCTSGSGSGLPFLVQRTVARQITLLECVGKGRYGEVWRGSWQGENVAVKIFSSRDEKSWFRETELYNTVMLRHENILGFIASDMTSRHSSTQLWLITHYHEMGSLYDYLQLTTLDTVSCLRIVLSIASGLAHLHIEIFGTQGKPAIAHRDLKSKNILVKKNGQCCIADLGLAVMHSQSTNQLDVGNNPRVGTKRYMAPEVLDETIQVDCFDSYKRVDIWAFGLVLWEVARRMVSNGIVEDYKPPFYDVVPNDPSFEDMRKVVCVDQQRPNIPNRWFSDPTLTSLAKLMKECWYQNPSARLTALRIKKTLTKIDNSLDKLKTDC

| Structure (SMILES) | IC50 [nM] |
| --- | --- |
| Cc1nn2c(-c3ccnc4nc(-c5cnn(C)c5)ccc34)cnc2cc1-c1cnn(C(C)C)c1 [Example 51, 5-(7-(1-Isopropyl-1H-pyrazol-4-yl)-6-methylimidazo[1,2-b]pyridazin-3-yl)-2-(1-methyl-1H-pyrazol-4-yl)-1,8-naphthyridine] | 1 to 5 |

same assay, conditions: 3 μM ATP, 0.5 nM ALK2, 2 hr, 25° C.; read-out: ALK2 IC50

| Structure (SMILES) | IC50 [nM] |
| --- | --- |
| Cc1nn2c(-c3ccnc4nc(-c5ccn(C)n5)ccc34)cnc2cc1-c1ccc(C(=O)N(C)C)cc1 [Example 47, N,N-dimethyl-4-(6-methyl-3-(7-(1-methyl-1H-pyrazol-3-yl)-1,8-naphthyridin-4-yl)imidazo[1,2-b]pyridazin-7-yl)benzamide] | 1 to 5 |
| Cc1cc(-c2ccc3c(-c4cnc5cc(-c6ccc(CN7CCC7)cc6)c(C)nn45)ccnc3n2)n[nH]1 [Example 48, 5-(7-(4-(Azetidin-1-ylmethyl)phenyl)-6-methylimidazo[1,2-b]pyridazin-3-yl)-2-(5-methyl-1H-pyrazol-3-yl)-1,8-naphthyridine] | < 1 |
| Cc1cc(-c2ccc3c(-c4cnc5cc(-c6ccc(CN7CCOCC7)cc6)c(C)nn45)ccnc3n2)n[nH]1 [Example 49, 4-(4-(6-methyl-3-(7-(5-methyl-1H-pyrazol-3-yl)-1,8-naphthyridin-4-yl)imidazo[1,2-b]pyridazin-7-yl)benzyl)morpholine] | < 1 |
| CCn1cnc(-c2ccc3c(-c4cnc5cc(-c6ccc(CN7CCCC7)cc6)c(C)nn45)ccnc3n2)c1 [Example 52, 2-(1-Ethyl-1H-imidazol-4-yl)-5-(6-methyl-7-(4-(pyrrolidin-1-ylmethyl)phenyl)imidazo[1,2-b]pyridazin-3-yl)-1,8-naphthyridine] | < 1 |
| CCn1cnc(-c2ccc3c(-c4cnc5cc(-c6ccc(CN7CCOCC7)cc6)c(C)nn45)ccnc3n2)c1 [Example 53, 4-(4-(3-(7-(1-Ethyl-1H-imidazol-4-yl)-1,8-naphthyridin-4-yl)-6-methylimidazo[1,2-b]pyridazin-7-yl)benzyl)morpholine] | 1 to 5 |
| CCn1cnc(-c2ccc3c(-c4cnc5cc(-c6ccc(CN7CCC7)cc6)c(C)nn45)ccnc3n2)c1 [Example 56, 5-(7-(4-(Azetidin-1-ylmethyl)phenyl)-6-methylimidazo[1,2-b]pyridazin-3-yl)-2-(1-ethyl-1H-imidazol-4-yl)-1,8-naphthyridine] | 1 to 5 |
| CCn1cnc(-c2ccc3c(-c4cnc5cc(-c6ccc(CN7CC(F)(F)C7)cc6)c(C)nn45)ccnc3n2)c1 [Example 57] | 1 to 5 |
| CCn1cnc(-c2ccc3c(-c4cnc5cc(-c6ccc(CN7CCO[C@@H](C)C7)cc6)c(C)nn45)ccnc3n2)c1 [Example 58, (S)-4-(4-(3-(7-(1-ethyl-1H-imidazol-4-yl)-1,8-naphthyridin-4-yl)-6-methylimidazo[1,2-b]pyridazin-7-yl)benzyl)-2-methylmorpholine] | < 1 |
| CCn1cnc(-c2ccc3c(-c4cnc5cc(-c6ccc(CN7CCO[C@H](CO)C7)cc6)c(C)nn45)ccnc3n2)c1 [Example 59, (S)-(4-(4-(3-(7-(1-ethyl-1H-imidazol-4-yl)-1,8-naphthyridin-4-yl)-6-methylimidazo[1,2-b]pyridazin-7-yl)benzyl)morpholin-2-yl)methanol] | 1 to 5 |
| CCn1cnc(-c2ccc3c(-c4cnc5cc(-c6ccc(CN7CCC(O)CC7)cc6)c(C)nn45)ccnc3n2)c1 [Example 71, 1-(4-(3-(7-(1-Ethyl-1H-imidazol-4-yl)-1,8-naphthyridin-4-yl)-6-methylimidazo[1,2-b]pyridazin-7-yl)benzyl)piperidin-4-ol] | 1 to 5 |
| CCn1cnc(-c2ccc3c(-c4cnc5cc(-c6ccc(CN7CCC(C)(O)CC7)cc6)c(C)nn45)ccnc3n2)c1 [Example 72, 1-(4-(3-(7-(1-Ethyl-1H-imidazol-4-yl)-1,8-naphthyridin-4-yl)-6-methylimidazo[1,2-b]pyridazin-7-yl)benzyl)-4-methylpiperidin-4-ol] | < 1 |

Results, then the molecule that gave them:

| IC50 [nM] | Structure (SMILES) |
| --- | --- |
| < 1 | Cc1cc(-c2ccc3c(-c4cnc5cc(-c6cnn(C(C)C)c6)c(C)nn45)ccnc3n2)n[nH]1 [Example 50, 5-(7-(1-Isopropyl-1H-pyrazol-4-yl)-6-methylimidazo[1,2-b]pyridazin-3-yl)-2-(5-methyl-1H-pyrazol-3-yl)-1,8-naphthyridine] |
| < 1 | CCn1cnc(-c2ccc3c(-c4cnc5cc(-c6ccc(CN(C)C)cc6)c(C)nn45)ccnc3n2)c1 [Example 54, 1-(4-(3-(7-(1-Ethyl-1H-imidazol-4-yl)-1,8-naphthyridin-4-yl)-6-methylimidazo[1,2-b]pyridazin-7-yl)phenyl)-N,N-dimethylmethanamine] |
| 1 to 5 | CCn1cnc(-c2ccc3c(-c4cnc5cc(-c6cnn(C(C)C)c6)c(C)nn45)ccnc3n2)c1 [Example 55, 2-(1-Ethyl-1H-imidazol-4-yl)-5-(7-(1-isopropyl-1H-pyrazol-4-yl)-6-methylimidazo[1,2-b]pyridazin-3-yl)-1,8-naphthyridine] |
| 1 to 5 | Cc1cnn(-c2ccc3c(-c4cnc5cc(-c6ccc(CN7CCCC7)cc6)c(C)nn45)ccnc3n2)n1 [Example 60, 2-(4-Methyl-2H-1,2,3-triazol-2-yl)-5-(6-methyl-7-(4-(pyrrolidin-1-ylmethyl)phenyl)imidazo[1,2-b]pyridazin-3-yl)-1,8-naphthyridine] |
| 1 to 5 | Cc1cnn(-c2ccc3c(-c4cnc5cc(-c6cnn(C(C)C)c6)c(C)nn45)ccnc3n2)n1 [Example 61, 5-(7-(1-Isopropyl-1H-pyrazol-4-yl)-6-methylimidazo[1,2-b]pyridazin-3-yl)-2-(4-methyl-2H-1,2,3-triazol-2-yl)-1,8-naphthyridine] |
| < 1 | Cc1cnn(-c2ccc3c(-c4cnc5cc(-c6cnn(C7CCOCC7)c6)c(C)nn45)ccnc3n2)n1 [Example 62, 2-(4-Methyl-2H-1,2,3-triazol-2-yl)-5-(6-methyl-7-(1-(tetrahydro-2H-pyran-4-yl)-1H-pyrazol-4-yl)imidazo[1,2-b]pyridazin-3-yl)-1,8-naphthyridine] |
| 1 to 5 | Cc1cnn(-c2ccc3c(-c4cnc5cc(-c6ccc(CN(C)C)cc6)c(C)nn45)ccnc3n2)n1 [Example 63, N,N-dimethyl-1-(4-(6-methyl-3-(7-(4-methyl-2H-1,2,3-triazol-2-yl)-1,8-naphthyridin-4-yl)imidazo[1,2-b]pyridazin-7-yl)phenyl)methanamine] |
| 1 to 5 | Cc1cnn(-c2ccc3c(-c4cnc5cc(-c6ccc(CN7CCOCC7)cc6)c(C)nn45)ccnc3n2)n1 [Example 64, 4-(4-(6-Methyl-3-(7-(4-methyl-2H-1,2,3-triazol-2-yl)-1,8-naphthyridin-4-yl)imidazo[1,2-b]pyridazin-7-yl)benzyl)morpholine] |
| 1 to 5 | Cc1cnn(-c2ccc3c(-c4cnc5cc(-c6ccc(CN(C)C)cc6)c(C)nn45)ccnc3n2)n1 [Example 65, N,N-dimethyl-1-(4-(6-methyl-3-(7-(4-methyl-2H-1,2,3-triazol-2-yl)-1,8-naphthyridin-4-yl)imidazo[1,2-b]pyridazin-7-yl)phenyl)methanamine] |
| < 1 | Cc1cnn(-c2ccc3c(-c4cnc5cc(-c6ccc(CN7CC[C@](C)(O)C7)cc6)c(C)nn45)ccnc3n2)n1 [Example 66, (S)-3-methyl-1-(4-(6-methyl-3-(7-(4-methyl-2H-1,2,3-triazol-2-yl)-1,8-naphthyridin-4-yl)imidazo[1,2-b]pyridazin-7-yl)benzyl)pyrrolidin-3-ol] |
| < 1 | Cc1cnn(-c2ccc3c(-c4cnc5cc(-c6ccc(CN7CCC(O)CC7)cc6)c(C)nn45)ccnc3n2)n1 [Example 67, 1-(4-(6-methyl-3-(7-(4-methyl-2H-1,2,3-triazol-2-yl)-1,8-naphthyridin-4-yl)imidazo[1,2-b]pyridazin-7-yl)benzyl)piperidin-4-ol] |
| < 1 | Cc1cnn(-c2ccc3c(-c4cnc5cc(-c6ccc(CN7CCC(C)(O)CC7)cc6)c(C)nn45)ccnc3n2)n1 [Example 68, 4-methyl-1-(4-(6-methyl-3-(7-(4-methyl-2H-1,2,3-triazol-2-yl)-1,8-naphthyridin-4-yl)imidazo[1,2-b]pyridazin-7-yl)benzyl)piperidin-4-ol] |
| 1 to 5 | Cc1cnn(-c2ccc3c(-c4cnc5cc(-c6ccc(CN7CC(C)(O)C7)cc6)c(C)nn45)ccnc3n2)n1 [Example 69, 3-methyl-1-(4-(6-methyl-3-(7-(4-methyl-2H-1,2,3-triazol-2-yl)-1,8-naphthyridin-4-yl)imidazo[1,2-b]pyridazin-7-yl)benzyl)azetidin-3-ol] |
| 1 to 5 | Cc1cnn(-c2ccc3c(-c4cnc5cc(-c6ccc(CN7CCN(C)CC7)cc6)c(C)nn45)ccnc3n2)n1 [Example 70, 2-(4-methyl-2H-1,2,3-triazol-2-yl)-5-(6-methyl-7-(4-((4-methylpiperazin-1-yl)methyl)phenyl)imidazo[1,2-b]pyridazin-3-yl)-1,8-naphthyridine] |

tested on: ALK2 mutant DIPG cell; assay: not given; conditions: ALK2 mutant DIPG cells; cited from earlier work

| Structure (SMILES) | inhibition of ALK2 mutant DIPG cell viability |
| --- | --- |
| c1ccc2c(-c3cnn4cc(-c5ccc(N6CCNCC6)cc5)cnc34)ccnc2c1 [LDN-19318917] | significant inhibition |
